This passage reports % binding, % of control and % of inhibition results from ChEMBL document CHEMBL5465560, “Selectivity Literature for EUbOPEN Chemogenomic Library” (2024).

The target in test [1] is T1, Dual specificity mitogen-activated protein kinase kinase 7 (Homo sapiens) (UniProt O14733).
T1 sequence (whole entry): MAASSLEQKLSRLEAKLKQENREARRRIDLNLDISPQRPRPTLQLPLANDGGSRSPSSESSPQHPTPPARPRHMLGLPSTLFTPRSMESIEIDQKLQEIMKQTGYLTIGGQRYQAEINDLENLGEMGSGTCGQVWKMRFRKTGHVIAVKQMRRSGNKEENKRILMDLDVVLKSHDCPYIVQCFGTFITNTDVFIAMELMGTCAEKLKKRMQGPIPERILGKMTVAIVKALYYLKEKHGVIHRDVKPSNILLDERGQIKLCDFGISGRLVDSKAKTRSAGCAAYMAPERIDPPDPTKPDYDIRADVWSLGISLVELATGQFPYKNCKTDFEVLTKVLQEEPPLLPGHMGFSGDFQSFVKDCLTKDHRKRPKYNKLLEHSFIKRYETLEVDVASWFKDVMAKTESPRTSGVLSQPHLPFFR
Nature of the test: Selectivity interaction (KinomeScan (DiscoverX)) EUB0000229b MAP2K7. As to conditions: at 10 µM.

The target in test [2] is Epithelial discoidin domain-containing receptor 1 (Homo sapiens) (UniProt Q08345). Nature of the test: Selectivity interaction (KinomeScan (DiscoverX)) EUB0000229b DDR1. Conditions: at 10 µM.
Epithelial discoidin domain-containing receptor 1 (Homo sapiens), sequence (Q08345 whole entry, the tested form may be a part): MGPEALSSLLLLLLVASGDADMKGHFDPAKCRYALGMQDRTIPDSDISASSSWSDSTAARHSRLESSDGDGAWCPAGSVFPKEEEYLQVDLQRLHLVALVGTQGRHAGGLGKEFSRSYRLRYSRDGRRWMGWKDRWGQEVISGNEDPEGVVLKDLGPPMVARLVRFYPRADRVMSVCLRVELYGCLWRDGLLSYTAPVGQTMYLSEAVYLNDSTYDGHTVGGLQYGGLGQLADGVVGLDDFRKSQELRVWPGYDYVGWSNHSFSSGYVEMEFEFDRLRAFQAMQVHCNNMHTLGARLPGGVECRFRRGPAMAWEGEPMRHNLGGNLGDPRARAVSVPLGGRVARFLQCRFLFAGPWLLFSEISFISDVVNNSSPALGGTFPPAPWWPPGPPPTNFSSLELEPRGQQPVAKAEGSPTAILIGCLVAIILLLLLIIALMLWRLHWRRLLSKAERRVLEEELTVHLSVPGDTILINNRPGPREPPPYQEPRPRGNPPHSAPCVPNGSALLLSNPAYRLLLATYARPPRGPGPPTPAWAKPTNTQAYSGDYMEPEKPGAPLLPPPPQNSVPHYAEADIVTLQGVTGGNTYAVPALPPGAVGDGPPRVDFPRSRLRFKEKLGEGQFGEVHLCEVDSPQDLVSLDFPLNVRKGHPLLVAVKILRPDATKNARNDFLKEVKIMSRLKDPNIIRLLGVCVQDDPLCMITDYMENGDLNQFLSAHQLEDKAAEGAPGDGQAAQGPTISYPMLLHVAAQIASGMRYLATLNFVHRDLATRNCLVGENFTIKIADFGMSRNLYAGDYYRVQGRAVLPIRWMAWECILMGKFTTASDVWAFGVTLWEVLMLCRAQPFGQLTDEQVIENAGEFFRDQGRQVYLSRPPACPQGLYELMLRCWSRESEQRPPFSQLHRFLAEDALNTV
For test [3], the target named is T2, Phosphatidylinositol 3-kinase C2 domain-containing subunit gamma (Homo sapiens) (UniProt O75747).
T2 sequence (whole entry): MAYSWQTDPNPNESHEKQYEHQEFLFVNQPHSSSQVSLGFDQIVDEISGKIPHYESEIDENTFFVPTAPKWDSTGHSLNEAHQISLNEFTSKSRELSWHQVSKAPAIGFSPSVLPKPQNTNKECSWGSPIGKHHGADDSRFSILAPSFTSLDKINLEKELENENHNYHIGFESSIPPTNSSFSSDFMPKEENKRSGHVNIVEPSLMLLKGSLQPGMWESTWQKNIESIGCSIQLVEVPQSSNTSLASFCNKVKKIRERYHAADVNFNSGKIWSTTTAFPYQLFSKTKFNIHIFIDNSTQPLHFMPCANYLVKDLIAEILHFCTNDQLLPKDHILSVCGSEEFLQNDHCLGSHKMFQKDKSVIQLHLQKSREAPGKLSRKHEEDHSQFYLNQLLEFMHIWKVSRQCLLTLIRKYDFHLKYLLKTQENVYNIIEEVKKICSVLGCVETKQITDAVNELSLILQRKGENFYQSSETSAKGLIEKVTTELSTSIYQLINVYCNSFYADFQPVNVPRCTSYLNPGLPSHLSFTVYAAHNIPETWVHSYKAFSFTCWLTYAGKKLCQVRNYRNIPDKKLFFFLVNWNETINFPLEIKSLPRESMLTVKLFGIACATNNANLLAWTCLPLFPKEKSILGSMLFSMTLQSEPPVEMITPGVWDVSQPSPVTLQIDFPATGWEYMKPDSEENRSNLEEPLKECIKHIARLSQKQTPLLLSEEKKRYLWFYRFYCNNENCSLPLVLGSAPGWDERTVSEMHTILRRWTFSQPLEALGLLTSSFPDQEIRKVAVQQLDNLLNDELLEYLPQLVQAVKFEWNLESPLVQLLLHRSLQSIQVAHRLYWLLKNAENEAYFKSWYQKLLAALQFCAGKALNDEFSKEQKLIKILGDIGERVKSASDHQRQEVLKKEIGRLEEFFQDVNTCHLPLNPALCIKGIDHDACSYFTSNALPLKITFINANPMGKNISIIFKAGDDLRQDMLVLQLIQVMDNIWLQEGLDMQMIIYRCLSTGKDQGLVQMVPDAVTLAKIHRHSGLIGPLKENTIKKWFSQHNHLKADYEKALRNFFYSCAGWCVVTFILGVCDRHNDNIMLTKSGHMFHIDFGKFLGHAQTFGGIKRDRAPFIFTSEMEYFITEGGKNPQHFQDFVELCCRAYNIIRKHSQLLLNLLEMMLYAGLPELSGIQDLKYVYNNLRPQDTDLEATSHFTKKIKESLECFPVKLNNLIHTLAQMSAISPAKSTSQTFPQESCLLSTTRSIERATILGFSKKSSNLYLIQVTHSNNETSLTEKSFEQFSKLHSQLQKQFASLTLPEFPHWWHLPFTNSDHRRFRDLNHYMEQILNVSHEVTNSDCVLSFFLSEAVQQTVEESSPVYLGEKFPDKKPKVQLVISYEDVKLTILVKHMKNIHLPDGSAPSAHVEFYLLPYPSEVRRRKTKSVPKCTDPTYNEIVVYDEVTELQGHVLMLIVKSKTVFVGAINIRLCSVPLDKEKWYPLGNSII
Nature of the test: Selectivity interaction (KinomeScan (DiscoverX)) EUB0000655a PIK3C2G. Conditions: at 10 µM.

For test [4], the target named is Serine/threonine-protein kinase PRP4 homolog (Homo sapiens) (UniProt Q13523). Nature of the test: Selectivity interaction (ActivX KiNativ screen (kinase selectivity in THP-1 cell lysates)) EUB0000639a PRPF4. It counts as subcellular. Conditions: lysate, at 5 µM.
Serine/threonine-protein kinase PRP4 homolog (Homo sapiens), sequence (Q13523 whole entry): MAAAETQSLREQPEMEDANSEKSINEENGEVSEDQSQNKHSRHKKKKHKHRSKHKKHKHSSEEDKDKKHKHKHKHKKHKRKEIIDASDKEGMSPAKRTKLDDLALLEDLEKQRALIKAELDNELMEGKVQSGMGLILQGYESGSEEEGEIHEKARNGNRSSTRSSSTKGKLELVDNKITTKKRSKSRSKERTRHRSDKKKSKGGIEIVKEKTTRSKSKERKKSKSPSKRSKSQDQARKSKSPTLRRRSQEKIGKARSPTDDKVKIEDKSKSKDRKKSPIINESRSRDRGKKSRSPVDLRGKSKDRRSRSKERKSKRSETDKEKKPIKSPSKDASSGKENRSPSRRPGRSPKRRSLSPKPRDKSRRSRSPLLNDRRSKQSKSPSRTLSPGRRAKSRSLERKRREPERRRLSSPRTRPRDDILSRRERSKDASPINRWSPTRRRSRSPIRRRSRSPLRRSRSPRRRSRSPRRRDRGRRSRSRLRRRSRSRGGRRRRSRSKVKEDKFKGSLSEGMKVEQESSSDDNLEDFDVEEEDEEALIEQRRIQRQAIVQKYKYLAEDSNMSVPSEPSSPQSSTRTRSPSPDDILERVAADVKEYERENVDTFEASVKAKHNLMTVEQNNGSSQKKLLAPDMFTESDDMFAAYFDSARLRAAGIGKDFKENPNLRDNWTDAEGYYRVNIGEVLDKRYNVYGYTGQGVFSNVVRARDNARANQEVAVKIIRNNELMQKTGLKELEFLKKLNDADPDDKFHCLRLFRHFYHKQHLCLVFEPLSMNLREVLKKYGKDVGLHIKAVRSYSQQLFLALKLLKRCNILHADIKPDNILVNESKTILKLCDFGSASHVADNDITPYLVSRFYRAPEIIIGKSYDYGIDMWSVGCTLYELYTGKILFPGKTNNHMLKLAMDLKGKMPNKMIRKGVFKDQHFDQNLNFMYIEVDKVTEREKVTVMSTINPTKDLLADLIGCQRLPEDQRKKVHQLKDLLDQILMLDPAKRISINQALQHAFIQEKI
The target in test [5] is eIF-2-alpha kinase GCN2 (Homo sapiens) (UniProt Q9P2K8). Nature of the test: Selectivity interaction (ActivX KiNativ screen (kinase selectivity in THP-1 cell lysates)) EUB0000639a EIF2AK4. It counts as subcellular. Conditions: lysate, at 5 µM.
eIF-2-alpha kinase GCN2 (Homo sapiens), sequence (Q9P2K8 whole entry): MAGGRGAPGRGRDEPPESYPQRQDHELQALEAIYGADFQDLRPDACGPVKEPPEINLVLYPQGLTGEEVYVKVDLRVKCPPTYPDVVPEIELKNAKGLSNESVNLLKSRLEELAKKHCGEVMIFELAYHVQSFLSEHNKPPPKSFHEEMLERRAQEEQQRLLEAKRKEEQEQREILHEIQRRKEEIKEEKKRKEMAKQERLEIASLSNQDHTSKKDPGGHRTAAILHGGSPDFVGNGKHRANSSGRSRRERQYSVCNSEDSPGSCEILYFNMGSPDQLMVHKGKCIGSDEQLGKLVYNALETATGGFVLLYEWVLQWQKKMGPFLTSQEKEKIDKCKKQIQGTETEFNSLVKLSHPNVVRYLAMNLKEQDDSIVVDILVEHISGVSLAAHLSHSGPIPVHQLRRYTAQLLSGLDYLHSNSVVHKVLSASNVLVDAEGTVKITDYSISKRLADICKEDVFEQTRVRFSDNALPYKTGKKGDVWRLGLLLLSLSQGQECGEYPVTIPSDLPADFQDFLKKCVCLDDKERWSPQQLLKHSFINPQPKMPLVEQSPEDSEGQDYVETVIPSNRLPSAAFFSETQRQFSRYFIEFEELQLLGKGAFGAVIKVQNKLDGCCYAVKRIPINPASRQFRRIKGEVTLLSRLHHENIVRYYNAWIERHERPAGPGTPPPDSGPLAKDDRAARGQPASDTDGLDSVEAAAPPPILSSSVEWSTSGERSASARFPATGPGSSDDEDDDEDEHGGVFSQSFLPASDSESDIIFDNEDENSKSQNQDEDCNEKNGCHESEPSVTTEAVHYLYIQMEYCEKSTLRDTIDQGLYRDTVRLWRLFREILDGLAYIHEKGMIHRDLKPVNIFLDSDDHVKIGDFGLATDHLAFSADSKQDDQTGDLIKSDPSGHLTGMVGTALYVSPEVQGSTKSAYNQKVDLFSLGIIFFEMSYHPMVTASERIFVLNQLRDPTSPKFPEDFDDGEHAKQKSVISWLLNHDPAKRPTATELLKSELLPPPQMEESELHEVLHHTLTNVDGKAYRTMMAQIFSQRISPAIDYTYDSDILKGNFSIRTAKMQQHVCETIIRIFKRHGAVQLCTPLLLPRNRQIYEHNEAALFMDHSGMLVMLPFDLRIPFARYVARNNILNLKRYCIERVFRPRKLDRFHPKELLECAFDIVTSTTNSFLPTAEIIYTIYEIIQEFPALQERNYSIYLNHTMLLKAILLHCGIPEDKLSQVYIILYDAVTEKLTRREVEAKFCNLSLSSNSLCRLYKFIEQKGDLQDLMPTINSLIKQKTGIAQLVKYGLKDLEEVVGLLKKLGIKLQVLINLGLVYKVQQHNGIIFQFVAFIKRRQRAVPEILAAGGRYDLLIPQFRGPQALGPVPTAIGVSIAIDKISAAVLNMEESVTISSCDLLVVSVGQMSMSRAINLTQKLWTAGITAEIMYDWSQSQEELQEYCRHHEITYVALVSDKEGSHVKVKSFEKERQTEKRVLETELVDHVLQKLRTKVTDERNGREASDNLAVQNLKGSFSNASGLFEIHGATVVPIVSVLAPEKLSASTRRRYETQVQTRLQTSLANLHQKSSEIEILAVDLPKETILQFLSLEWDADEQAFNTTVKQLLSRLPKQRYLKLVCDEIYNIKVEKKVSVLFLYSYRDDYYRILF
Test [6] concerns the target Ribosomal protein S6 kinase alpha-1 (Homo sapiens, UniProt Q15418). Nature of the test: Selectivity interaction (ActivX KiNativ screen (kinase selectivity in THP-1 cell lysates)) EUB0000639a RPS6KA1. It counts as subcellular. As to conditions: lysate, at 0.01 µM.
Test [7] has as its target Ribosomal protein S6 kinase alpha-6 (Homo sapiens, UniProt Q9UK32). Nature of the test: Selectivity interaction (KinomeScan (DiscoverX)) EUB0000092b RPS6KA6. Conditions: at 10 µM.
Test [8] has as its target T3, Testis-specific serine/threonine-protein kinase 1 (Homo sapiens) (UniProt Q9BXA7).
T3 sequence (whole entry): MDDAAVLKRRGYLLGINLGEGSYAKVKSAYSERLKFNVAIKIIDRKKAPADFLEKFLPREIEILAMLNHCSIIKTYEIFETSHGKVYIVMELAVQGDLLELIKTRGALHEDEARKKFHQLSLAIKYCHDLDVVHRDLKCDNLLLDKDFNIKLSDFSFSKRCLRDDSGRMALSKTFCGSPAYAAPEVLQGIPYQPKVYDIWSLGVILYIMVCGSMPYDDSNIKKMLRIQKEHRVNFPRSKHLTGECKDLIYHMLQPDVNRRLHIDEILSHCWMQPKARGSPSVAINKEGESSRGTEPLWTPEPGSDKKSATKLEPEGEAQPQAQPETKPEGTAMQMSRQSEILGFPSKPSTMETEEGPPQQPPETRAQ
Nature of the test: Selectivity interaction (KinomeScan (DiscoverX)) EUB0000045b TSSK1A.

Ribosomal protein S6 kinase alpha-1, sequence (Q15418 whole entry): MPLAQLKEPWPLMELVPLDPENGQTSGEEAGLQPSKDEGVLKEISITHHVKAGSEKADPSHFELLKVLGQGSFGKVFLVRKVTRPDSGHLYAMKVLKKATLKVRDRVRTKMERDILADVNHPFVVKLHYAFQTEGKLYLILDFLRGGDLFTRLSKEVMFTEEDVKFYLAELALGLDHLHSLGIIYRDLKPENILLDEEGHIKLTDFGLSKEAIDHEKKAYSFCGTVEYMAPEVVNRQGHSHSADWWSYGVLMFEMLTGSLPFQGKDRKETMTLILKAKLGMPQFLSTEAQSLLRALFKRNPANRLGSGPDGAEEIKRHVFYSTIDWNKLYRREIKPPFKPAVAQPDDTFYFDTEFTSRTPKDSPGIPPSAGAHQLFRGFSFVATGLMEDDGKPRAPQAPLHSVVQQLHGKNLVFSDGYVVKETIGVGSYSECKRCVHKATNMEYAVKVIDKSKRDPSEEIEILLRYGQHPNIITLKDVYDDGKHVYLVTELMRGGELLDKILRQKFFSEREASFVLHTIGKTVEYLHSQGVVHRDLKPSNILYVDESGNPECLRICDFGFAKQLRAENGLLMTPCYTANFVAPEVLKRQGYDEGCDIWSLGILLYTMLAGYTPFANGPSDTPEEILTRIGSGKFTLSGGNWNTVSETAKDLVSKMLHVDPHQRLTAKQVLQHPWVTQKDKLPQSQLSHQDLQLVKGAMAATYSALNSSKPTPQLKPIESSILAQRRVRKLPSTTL
Ribosomal protein S6 kinase alpha-6, sequence (Q9UK32 whole entry): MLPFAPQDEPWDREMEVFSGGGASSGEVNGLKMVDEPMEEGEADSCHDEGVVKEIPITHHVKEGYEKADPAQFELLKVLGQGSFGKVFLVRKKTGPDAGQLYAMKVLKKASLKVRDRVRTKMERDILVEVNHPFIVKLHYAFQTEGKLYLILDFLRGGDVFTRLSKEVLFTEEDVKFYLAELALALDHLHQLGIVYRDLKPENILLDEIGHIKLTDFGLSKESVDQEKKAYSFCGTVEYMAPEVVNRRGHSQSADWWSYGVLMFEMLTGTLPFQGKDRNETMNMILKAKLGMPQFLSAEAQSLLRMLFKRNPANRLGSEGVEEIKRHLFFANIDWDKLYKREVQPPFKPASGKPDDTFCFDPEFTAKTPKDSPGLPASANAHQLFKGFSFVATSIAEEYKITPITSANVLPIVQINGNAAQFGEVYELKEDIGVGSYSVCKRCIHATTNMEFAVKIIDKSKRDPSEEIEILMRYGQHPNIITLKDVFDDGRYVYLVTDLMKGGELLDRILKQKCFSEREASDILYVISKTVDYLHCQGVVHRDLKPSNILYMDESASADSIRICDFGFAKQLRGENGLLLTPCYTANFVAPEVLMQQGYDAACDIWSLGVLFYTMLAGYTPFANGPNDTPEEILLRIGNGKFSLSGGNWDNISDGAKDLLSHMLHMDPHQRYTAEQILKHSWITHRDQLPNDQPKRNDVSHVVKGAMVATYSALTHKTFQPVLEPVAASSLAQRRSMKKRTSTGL

With `COc1cc(N(C)c2ccnc3ccc(C(F)(F)F)cc23)cc(OC)c1OC`, the results for the % binding in test [1] and in test [2] were 83% and 78%, respectively.
`CN(C)CCOc1ccc(-c2nc(-c3ccncc3)c(-c3ccc4c(c3)CC/C4=N\O)[nH]2)cc1` gave a % of control in test [3] of 55%.
As to `CC[C@@H]1[C@H](F)C(=O)N[C@@H]1COc1nccc2cc(C(N)=O)c(OC)cc12` [ZIMLOVISERTIB], the values for the % of inhibition in test [4], in test [5] and in test [6] were 88.3%, 19.4% and 3.6%, respectively.
Take `CCC(=O)N1CCN(c2ccc(-n3c(=O)ccc4cnc5ccc(-c6cnc7ccccc7c6)cc5c43)cc2C(F)(F)F)CC1`: the % of control in test [7] turned out to be 66%.
Turning to `C=CC(=O)Nc1cc(-n2c(=O)ccc3cnc4ccc(-c5ccc(NS(C)(=O)=O)cc5)cc4c32)ccc1C`, the figures for the % of control in test [8] (at 1 µM) and in test [8] (at 10 µM) were 100% and 74%, respectively.
